Results: patent US20230416852A1, “METHODS FOR IDENTIFYING COMPOSITIONS FOR INHIBITING VIRAL INFECTIVITY” (priority 2020, published 2023)

Key:
CEM cells = assay: Presto Blue Cytotoxicity Assay; settings: read-out: IC50 cytotoxicity, FIG. 6C
Source text: In this assay, live cells show 586 nm fluoresce red. The higher the fluorescence, the more viable the cells are. Therefore, 100% cell death should result in no fluorescence.

HIV-1 NL4-3-GFP = HIV-1 NL4-3-GFP infection of CEM SS cells (no A3G); format: cell-based; settings: CEM SS cells compared to CEM-GFP cells, FIG. 6B
Description: (§1) As discussed above, Vif functions as an inhibitor to A3G antiviral function. […] The A3G-dependent antiviral effects of the hits were tested using CD4+T, CEM-GFP, and CEM SS cell lines. […] The Vif specific inhibitor should show high anti-HIV potency in CEM-GFP cells (and not in CEM SS cells). The CEM-GFP cell line expresses GFP upon HIV infection driven by HIV NL4-3 LTR. It can be used to measure HIV replication (Gervaix A, et at Proc Natl Acad Sci USA. 1997; 94 (9):4653-8.)
In FIG. 6B, HIV-1 NL4-3-GFP was used to infect CEM SS cell line.

[1] = biological target: T1, Vif function of inhibiting A3G CDA (Human immunodeficiency virus type 1 group M subtype B, UniProt P69723); format: biochemical, HIV-1; settings: 5 uM
T1 sequence (P69723 whole entry): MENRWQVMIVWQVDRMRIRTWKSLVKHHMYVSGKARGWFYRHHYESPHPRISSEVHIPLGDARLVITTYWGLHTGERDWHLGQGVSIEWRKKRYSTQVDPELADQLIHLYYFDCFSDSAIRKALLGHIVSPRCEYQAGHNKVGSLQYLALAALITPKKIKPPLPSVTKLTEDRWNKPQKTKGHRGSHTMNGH
Source text: This assay detects C to U mutation using a highly specific Stu I restriction enzyme digestion method. FIG. 4A is a schematic diagram of the PCR and restriction digestion-based CDA assay. CCC-150 is converted to CCU-150 under the enzymatic activity of A3G. […] In the presence of Vif, Vif will inhibit A3G enzymatic activity, so that reduced or no CCU-150 will be produced. Therefore, less or no Stu I cutting sites will form, and no digestion will occur.
The CDA products were subjected to PCR followed by Stu I digestion. The digestion products were applied to a 10% polyacrylamide gel for separation. SYBR Gold was used to visualize the bands. L-Cefixime refers to Compound I identified above.

[2] = tested on: A3G related G to A hypermutation in HIV-1 viral cDNA; assay: G to A hypermutation analysis of HIV-1 viral cDNA by next-generation sequencing in SupT1 cells; format: cell-based; settings: 1 μM; for average G to A hypermutation rate for each position: average over positions; for average G to A hypermutation rate for each position / G to A hypermutation rate / total G to A hypermutation rate: 6 hours, SupT1, HIV IIIB; for total G to A hypermutation rate: total over all positions
Description: The hallmark of A3G antiviral function is to induce G to A hypermutation in HIV cDNA. Therefore, it is very important to evaluate whether quinobene restores A3G's capability to induce G to A hypermutation rates in HIV cDNA. To do this, SupT1 cells were infected with HIV IIIB (350 ng p24)+DMSO or HVI IIIB (350 ng p24)+1 μM quinobene for 6 hours. After infection, DNA was isolated using a DNeasy Blood and Tissue DNA isolation kit (QIAGEN). A 199-bp DNA fragment covering a portion of LTR of HIV-1 was amplified with Taq DNA polymerase using the primers IIIB-F (5′-[…]) and HIV-1-R (5′-[…]). The PCR products were purified by QIAquick PCR Purification Kit (Qiagen) and sent to GENEWIZ, Inc (South Plainfield, NJ) for G to A hypermutation analysis using their Amplicon-EZ service, a next-generation sequencing-based sequencing service, allowed detection of low-frequency variants quantitatively. The G to A hypermutation rate was calculated using CLC Genomic Workbench.

HIV IIIB replication = HIV IIIB replication in A3G-expressing CEM-GFP cells; format: cell-based, HIV-1; settings: Human immunodeficiency virus 1, IIIB, FIG. 6A, read-out: IC50 inhibiting HIV IIIB replication
Description: as §1

[3] = biological target: T1, Vif function of inhibiting A3G CDA; assay: biochemical; format: biochemical, HIV-1; settings: 10 μM compounds; 20% cutoff stringency, i.e. 20% increase in A3G CDA versus controls; positive control set as 1
Source text: The A3G CDA edits the CCC sequence to predominantly to a CCU sequence. To specifically measure the C to U rate, three reverse primers R1, R2, and R3 were designed in the initial study.
Using the qPCR-based screening assay described in Example 1, the NCI Diversity Set VI, NCI Mech Set V, and NIH SMR were screened against Vif function of inhibiting A3G. The NCI Diversity Set VI was derived from almost 140,000 compounds available for distribution in the library of the NCI Developmental Therapeutics Program. […] The qPCR-based CDA assay was used to screen the libraries in 96-well plates with negative controls (no A3G and Vif), positive control (no Vif), and 10 μM compounds. Hits were selected at 20% cutoff stringency (above 0.2), i.e., 20% increase in A3G CDA versus controls. Any compounds that restored A3G activity by 20% or more were selected. The positive control was set as 1.

A3G viral encapsidation = assay: Western blot of A3G viral encapsidation (viral lysates from 293T cells); format: cell-based; settings: 5 μM, FIG. 7B
Description: (§2) An A3G expression vector was co-transfected with Vif, or with the empty vector as control. The A3G expression vector was also co-transfected with either a wild-type viral construct HXB2, Vif deficient viral construct HXB2ΔVif, or pcDNA3.1 (as a control) into 293T cells. Immediately following transfection, 5 μM quinobene was used to treat the 293T cells. After 48 hours post-transfection, culture supernatants were subjected to ultracentrifuge to pellet down the virus. Viral lysates were analyzed by Western blot.

[4] = tested on: Vif induced A3G degradation; assay: Western blot of Vif induced A3G degradation in transfected 293T cells; format: cell-based; settings: 5 μM, FIG. 7A
Description: as §2

SMILES: O=S(=O)(O)c1cc(N=Nc2cc(S(=O)(=O)O)c3cccnc3c2O)ccc1C=Cc1ccc(N=Nc2cc(S(=O)(=O)O)c3cccnc3c2O)cc1S(=O)(=O)O [Compound IX, quinobene]
- IC50 (CEM cells): ~50 µM
- antiviral function (HIV-1 NL4-3-GFP): lost its antiviral function
- restoration of Stu I digestion product [1]: dramatically restored the digestion product
- positions showing G to A hypermutation rate increases ([2]; 22 out of 26 positions versus untreated): 84.6%
- average G to A hypermutation rate for each position ([2]; listed as Quino): 2.32%
- average G to A hypermutation rate for each position ([2]; listed as quinobene): 2.31%
- G to A hypermutation rate ([2]; position 22): 5.51%
- G to A hypermutation rate ([2]; position 23): 0.27%
- G to A hypermutation rate ([2]; position 35): 1.92%
- G to A hypermutation rate ([2]; position 36): 3.87%
- G to A hypermutation rate ([2]; position 37): 0.43%
- G to A hypermutation rate ([2]; position 47): 1.84%
- G to A hypermutation rate ([2]; position 48): 0.38%
- G to A hypermutation rate ([2]; position 51): 0%
- G to A hypermutation rate ([2]; position 56): 0.53%
- G to A hypermutation rate ([2]; position 61): 6.47%
- G to A hypermutation rate ([2]; position 62): 0%
- G to A hypermutation rate ([2]; position 65): 5.65%
- G to A hypermutation rate ([2]; position 68): 0.38%
- G to A hypermutation rate ([2]; position 71): 2.13%
- G to A hypermutation rate ([2]; position 72): 2.1%
- G to A hypermutation rate ([2]; position 73): 0.28%
- G to A hypermutation rate ([2]; position 78): 0.28%
- G to A hypermutation rate ([2]; position 126): 8.57%
- G to A hypermutation rate ([2]; position 127): 0.33%
- G to A hypermutation rate ([2]; position 136): 1.39%
- G to A hypermutation rate ([2]; position 157): 8.43%
- G to A hypermutation rate ([2]; position 158): 0.19%
- G to A hypermutation rate ([2]; position 168): 0.6%
- G to A hypermutation rate ([2]; position 177): 4.16%
- G to A hypermutation rate ([2]; position 178): 2.37%
- total G to A hypermutation rate ([2]; listed as Quino): 58.08%
- total G to A hypermutation rate ([2]; listed as quinobene): 58%
- IC50 (HIV IIIB replication): < 750 nM
- hit for restoring A3G CDA in the presence of Vif [3]: hits and hit
- effects on A3G viral encapsidation (A3G viral encapsidation): minimal to no effects
- influence on Vif induced A3G degradation [4]: minimal to no influence
